Consider one molecule from patent US20250115571A1, “OXOPIPERAZINE DERIVATIVES” (Inthera Bioscience AG, priority 2017, published 2025).

In assay [1] the test system is HCT116. The assay can be described thus: 9-day colony survival assay (CFA). Conditions: Homo sapiens, HCT-116, 216 h, HCT116 (colon), read-out: GI50 (50% growth inhibition). The assay is classed as cell-based.
Assay [2] concerns hormone-refractory DU-145 human prostate cancer cells. The assay can be described thus: Cell-derived xenograft mouse model for prostate cancer (DU-145 CDX). The assay is classed as in vivo. As to conditions: 3 mg/kg, p.o. QD × 4 weeks. The procedure:
Male BALB/c nude mice (7-9 weeks of age) were injected with hormone-refractory DU-145 human prostate cancer cells. The cells were inoculated subcutaneously into the left flank of 48 mice. When tumors reached a mean volume of approximately 105 mm^3, mice were randomly assigned to eight treatment groups of each six mice (TABLE 12). Body weights were measured three times weekly prior to the initiation of dosing and daily thereafter. Tumor burden was assessed by caliper measurement three times weekly. Dosing breaks were applied when tolerability issues arose (body weight loss>10%). The study was terminated 4 weeks post first dosing. The experiment was performed in the Crown Bioscience Ltd. (Beijing) testing facility (Ground Floor, Light Muller Building, Changping Sector of Zhongguancun Scientific Park, No. 21 Huoju Road, Changping District, Beijing, CHIN).

Assay [3] has as its system MKN45 human gastric adenocarcinoma cells. Put plainly: Cell-derived xenograft mouse model for gastric cancer (MKN45 CDX). Conditions: 6 mg/kg, QD, p.o. Format: in vivo. The method, then: Female BALB/c nude mice (8-9 weeks of age) were injected with MKN45 human gastric adenocarcinoma cells. The cells were inoculated subcutaneously into the left flank of 48 mice. When tumors reached a mean volume of approximately 103 mm^3, mice were randomly assigned to eight treatment groups of each six mice (TABLE 16). Body weights were measured three times weekly prior to the initiation of dosing and daily thereafter. Tumor burden was assessed by caliper measurement twice weekly. Dosing breaks were applied when tolerability issues arose (body weight loss>10%). The study was terminated four weeks post first dosing. The experiment was performed in the Crown Bioscience Ltd. (Beijing) testing facility (Ground Floor, Light Muller Building, Changping Sector of Zhongguancun Scientific Park, No. 21 Huoju Road, Changping District, Beijing, CHN).

The test system of assay [4] is PC3. The assay can be described thus: 9-day colony survival assay (CFA). Format: cell-based. Conditions: Homo sapiens, PC-3, 216 h, PC3 (prostate), read-out: GI50 (50% growth inhibition).
Assay [5] concerns A549. Put plainly: 9-day colony survival assay (CFA). Format: cell-based. As to conditions: Homo sapiens, 216 h, A549 (lung), read-out: GI50 (50% growth inhibition).
For assay [6], the system named is CaSki. Put plainly: 9-day colony survival assay (CFA). Format: cell-based. As to conditions: Homo sapiens, Ca-Ski, 216 h, CaSki (cervix), read-out: GI50 (50% growth inhibition). From the text:
Cell culture. CaSki cells (cervical cancer) were obtained from CLS GmbH, Eppelheim, Germany (cat #300145) and subcultured in ready-to-use RPMI1640 Media (CLS #820700) after addition of “Antibiotic Antimycotic Solution” (Sigma-Aldrich, St Louis, USA) at 1:100 dilution. The cells were expanded, and aliquots kept frozen in liquid nitrogen according to manufacturer's instructions; tested for mycoplasma contamination and genotyped (Microsynth AG, Balgach, Switzerland). Once thawed, aliquots were passaged every second or third day at a seed density of 20′000 cells/cm^2; and used for a maximum of twenty passages. For passaging, cell culture flasks were rinsed twice with Ca++/Mg++-free Phosphate-Buffered Saline (DPBS, CLS #860015) and incubated with Accutase (CLS #830100) for 15 min at 37° C. Cells were resuspended in a four-fold volume of ready-to-use RPMI, centrifuged at 300 g for ten minutes, the supernatant discarded and the cells resuspended in ready-to-use RPMI1640 by pipetting up and down five times with a serological pipette. Cell density was determined with a Via-1 Cassette (Chemometec, Allerod, Denmark) on a Nucleocounter NC 3000 (Chemometec). Where not stated, consumables and chemicals were purchased from well-known suppliers.
Preparation of the cells for CFA. Cell culture flasks were rinsed twice with DPBS and incubated with Accutase for 15 min at 37° C. Cells were resuspended in a four-fold volume of ready-to use RPMI, centrifuged at 300 g for ten minutes, the supernatant discarded and the cells resuspended in ready-to-use RPMI1640 by pipetting up and down ten times with a serological pipette. Cell density was determined with a Via-1 Cassette on a Nucleocounter NC 3000. The required amount of cells was first diluted 1:10 in ready-to-use RPMI; cells pipetted five times up-down with a serological pipette; and the 1:10 solution added to the final volume needed for the whole assay setup. Cells were mixed again by pipetting up and down twenty times with a serological pipette. The cell density used for the experiment was of 140 cells/ml.
Seeding. Cells were seeded row-wise in 12-well plates, while triplicates were treated column-wise (i.e. all the first rows were seeded first, then the second rows, and finally the third rows). One and a half ml cell suspension solution (a total of 210 cells) were added per well.
Treatment. Compound stock solutions were prepared at a concentration of 30 mM in 50% DMSO/50% water; and diluted in the same solution so that the volume added to the wells was of 2.5 μl and the final DMSO well concentration of 0.08%. Untreated cells (negative controls) were incubated in a) medium only; and b) 0.08% DMSO. […] The plates were swirled gently after addition of the compounds and the cells incubated for nine days at 37° C. Culture incubation solutions were replaced after five days.
Staining. Colonies were washed twice with ice-cold DPBS and fixed on ice with 1 ml ice-cold 10% methanol solution for 30 min. The methanol solution was removed and colonies incubated with 0.1% Crystal Violet/DBPS for 20 min at room temperature. The wells were rinsed consecutively with 1.5, 1, and 0.5 ml water at room temperature and let dry.
Destaining and data evaluation. […] Absorbance was measured at 600 nm with a SpectraMax M2e reader (Molecular Devices, Sunnyvale, CA, USA). Percentage of colony formation was calculated from the average of the well triplicates compared to the untreated DMSO controls after subtraction of blank values. […]

For `CC(C)C[C@@H]1NCCN([C@@H](CC(C)C)C(=O)N2CCC3(C[C@@H]2C)OCC(CN2CCC(C)CC2)CO3)C1=O` (stereo partly drawn) [Compound 253, (3S)-1-[(2S)-4-methyl-1-oxo-1-[(3s,6s,8S)-8-methyl-3-[(4-methylpiperidin-1-yl)methyl]-1,5-dioxa-9-azaspiro[5.5]undec-an-9-yl]pentan-2-yl]-3-(2-methylpropyl)piper-azin-2-one (^≠), isomer Z], the GI50 (in general, the concentration that inhibits growth by half) stood at 2 nM in assay [1], 4 nM in assay [4], 7 nM in assay [5] and 4.5 nM in assay [6]. Also, in assay [2], the “Tumor Size day 35 (Mean ± SEM)” value was 480 ± 49 mm^3. For the same molecule, in assay [2] (day 35), the “T/C (tumor-to-control ratio, volume/volume)” value is listed as 69.3%. In addition, the “Tumor Size day 29” value in assay [3] (MKN45 CDX, female BALB/c nude mice, Mean ± SEM) is 506.5 ± 71.0 mm^3. Moreover, the T/C (as a rule, the result in the treated group divided by that in the control group, in per cent) in assay [3] (day 29, tumor-to-control ratio (volume/volume)) is reported as 42.6%.
